Several values for one entry are separate records, joined by “and”; a condition that tells them apart may be missing. Identical values can stand only once. Marks after values point to notes of the source that are not given here.
What was measured:
rats [1] = assay: Tail flick test after intrathecal implantation of PLGA rods; format: in vivo; settings: for % MPE, tail flick test, Average: average of 6 rats
rats [2] = assay: Paw withdrawal test after intrathecal implantation of PLGA rods; format: in vivo; settings: for % MPE, paw withdrawal test, Average: average of 6 rats
[3] = Drug release studies of PLGA 85:15 rods (Example 2); format: physicochemical
rats [4] = assay: Anesthesia after intrathecal polymeric implants, all sites tested (Example 2); format: in vivo; settings: intrathecal rods
[5] = trapezoidal method, individual rats
[6] = trapezoidal method, mean of 6 rats

In the case of `C[C@@H](NC(=O)[C@@H](N)Cc1ccc(O)cc1)C(=O)NCC(=O)N[C@@H](Cc1ccccc1)C(=O)NNC(=O)[C@H](Cc1ccccc1)NC(=O)CNC(=O)[C@@H](C)NC(=O)[C@@H](N)Cc1ccc(O)cc1` [Biphalin], the “% MPE, tail flick test, Average” value (rats [1]; 2h) is reported as 86.67 % MPE, the “% MPE, tail flick test” value (rats [1]; 2h after intrathecal implantation of PLGA rod, individual rats) is reported as 80 % MPE and 96.46 % MPE and 86.99 % MPE and 84.66 % MPE and 76.49 % MPE and 95.43 % MPE and the “% MPE, tail flick test, Average” value (rats [1]; 4h) is reported as 91.63 % MPE. The “% MPE, tail flick test” value (rats [1]; 4h, individual rats) was 85.6 % MPE and 83.65 % MPE and 91.6 % MPE and 100 % MPE (2×) and 88.92 % MPE, the “Area under the curve (AUC), tail flick test” value (rats [1]; % MPE versus time in days, trapezoidal method, individual rats) was 280.84 and 263.66 and 251.97 and 276.26 and 343.10 and 236.51 and the “Area under the curve (AUC), tail flick test, Mean” value (rats [1]; % MPE versus time in days, trapezoidal method, mean of 6 rats) was 275.39 *. For the same compound, the “% MPE, tail flick test, Average” value (rats [1]; D1) was 82.2 % MPE, the “% MPE, tail flick test” value (rats [1]; D1, individual rats) was 84.8 % MPE and 71.9346 % MPE and 75.88 % MPE and 100 % MPE and 72.97 % MPE and 87.63 % MPE and the “% MPE, tail flick test, Average” value (rats [1]; D2) was 73.13 % MPE. The “% MPE, tail flick test” value (rats [1]; D2, individual rats) was 73.6 % MPE and 73.297 % MPE and 69.9187 % MPE and 90.48 % MPE and 55.14 % MPE and 76.34 % MPE, the “% MPE, tail flick test, Average” value (rats [1]; D3) was 46.93 % MPE and the “% MPE, tail flick test” value (rats [1]; D3, individual rats) was 32.53 % MPE and 35.15 % MPE and 36.59 % MPE and 73.54 % MPE and 50.27 % MPE and 53.49 % MPE. For the same compound, the “% MPE, tail flick test, Average” value (rats [1]; D4) was 24 % MPE, the “% MPE, tail flick test” value (rats [1]; D4, individual rats) was 22.67 % MPE and 20.16 % MPE and 31.17 % MPE and 33.33 % MPE and 21.08 % MPE and 15.5914 % MPE and the “% MPE, tail flick test, Average” value (rats [1]; D5) was 9.086 % MPE. The “% MPE, tail flick test” value (rats [1]; D5, individual rats) was 9.067 % MPE and 12.26 % MPE and 21.14 % MPE and 3.175 % MPE and 1.081 % MPE and 7.796 % MPE, the “% MPE, tail flick test, Average” value (rats [1]; D6) was 2.009 % MPE and the “% MPE, tail flick test” value (rats [1]; D6, individual rats) was 10.4 % MPE and 5.177 % MPE and 4.065 % MPE and 2.381 % MPE and −4.324 ^ % MPE and −5.645 ^ % MPE. For the same compound, the “% MPE, paw withdrawal test, Average” value (rats [2]; 2h, L) was 100 % MPE, the “% MPE, paw withdrawal test, Average” value (rats [2]; 2h, R) was 100 % MPE and the “% MPE, paw withdrawal test” value (rats [2]; 2h, left (L) hind paw, individual rats) was 100 % MPE. For the same compound, the “% MPE, paw withdrawal test” value (rats [2]; 2h, right (R) hind paw, individual rats) was 100 % MPE, the “% MPE, paw withdrawal test, Average” value (rats [2]; 4h, L) was 100 % MPE and the “% MPE, paw withdrawal test” value (rats [2]; 4h, L, individual rats) was 100 % MPE. The “% MPE, paw withdrawal test, Average” value (rats [2]; 4h, R) was 100 % MPE, the “% MPE, paw withdrawal test” value (rats [2]; 4h, R, individual rats) was 100 % MPE and the “% MPE, paw withdrawal test, Average” value (rats [2]; D1, L) was 14.47 % MPE. The “% MPE, paw withdrawal test” value (rats [2]; D1, L, individual rats) was 30.27 % MPE and 7.30 % MPE and −1.89 % MPE and 10.92 % MPE and 18.44 % MPE and 21.78 % MPE, the “% MPE, paw withdrawal test, Average” value (rats [2]; D1, R) was 16.56 % MPE and the “% MPE, paw withdrawal test” value (rats [2]; D1, R, individual rats) was 38.69 % MPE and 10.29 % MPE and −2.32 % MPE and 10.84 % MPE and 16.61 % MPE and 25.27 % MPE. The “% MPE, paw withdrawal test, Average” value (rats [2]; D2, L) was 8.34 % MPE, the “% MPE, paw withdrawal test” value (rats [2]; D2, L, individual rats) was 6.46 % MPE and 1.46 % MPE and −5.68 % MPE and 12.97 % MPE and 20.92 % MPE and 13.93 % MPE and the “% MPE, paw withdrawal test, Average” value (rats [2]; D2, R) was 6.03 % MPE. The “% MPE, paw withdrawal test” value (rats [2]; D2, R, individual rats) was 4.92 % MPE and 0.37 % MPE and −6.20 % MPE and 9.44 % MPE and 16.61 % MPE and 11.03 % MPE, the “% MPE, paw withdrawal test, Average” value (rats [2]; D3, L) was 7.52 % MPE and the “% MPE, paw withdrawal test” value (rats [2]; D3, L, individual rats) was −2.04 % MPE and 10.58 % MPE and 12.12 % MPE and 17.06 % MPE and 12.06 % MPE and −4.64 % MPE. For the same compound, the “% MPE, paw withdrawal test, Average” value (rats [2]; D3, R) was 8.40 % MPE, the “% MPE, paw withdrawal test” value (rats [2]; D3, R, individual rats) was 7.54 % MPE and 9.92 % MPE and 9.30 % MPE and 13.64 % MPE and 11.07 % MPE and −1.07 % MPE and the “% MPE, paw withdrawal test, Average” value (rats [2]; D4, L) was 1.86 % MPE. For the same compound, the “% MPE, paw withdrawal test” value (rats [2]; D4, L, individual rats) was 2.27 % MPE and 11.94 % MPE and 2.84 % MPE and 2.14 % MPE and 0.34 % MPE and −8.39 % MPE, the “% MPE, paw withdrawal test, Average” value (rats [2]; D4, R) was 1.02 % MPE and the “% MPE, paw withdrawal test” value (rats [2]; D4, R, individual rats) was −0.78 % MPE and 9.44 % MPE and 2.21 % MPE and −2.14 % MPE and 3.28 % MPE and −5.88 % MPE. For the same compound, the “% MPE, paw withdrawal test, Average” value (rats [2]; D5, L) was 3.36 % MPE, the “% MPE, paw withdrawal test” value (rats [2]; D5, L, individual rats) was 18.18 % MPE and 15.02 % MPE and 2.13 % MPE and −5 % MPE and 4.42 % MPE and −14.60 % MPE and the “% MPE, paw withdrawal test, Average” value (rats [2]; D5, R) was 4.72 % MPE. The “% MPE, paw withdrawal test” value (rats [2]; D5, R, individual rats) was 21.32 % MPE and 17.48 % MPE and 0.37 % MPE and −2.49 % MPE and 8.52 % MPE and −16.91 % MPE, the “% MPE, paw withdrawal test, Average” value (rats [2]; D6, L) was 0.45 % MPE and the “% MPE, paw withdrawal test” value (rats [2]; D6, L, individual rats) was 14.39 % MPE and 2.73 % MPE and −0.35 % MPE and −5.71 % MPE and −0.68 % MPE and −7.66 % MPE. For the same compound, the “% MPE, paw withdrawal test, Average” value (rats [2]; D6, R) was 0.00 % MPE, the “% MPE, paw withdrawal test” value (rats [2]; D6, R, individual rats) was 15.89 % MPE and 2.45 % MPE and −3.32 % MPE and −5.34 % MPE and 0.98 % MPE and −10.6 % MPE and the “Area under the curve (AUC), paw withdrawal test (left side)” value (rats [2]; [5]) was 41.94 and 82.35 and 118.40 and 104.74 and 73.61 and 86.69. For the same compound, the “Area under the curve (AUC), paw withdrawal test (right side)” value (rats [2]; [5]) was 41.65 and 79.45 and 111.20 and 93.88 and 75.91 and 110.34, the “Area under the curve (AUC), paw withdrawal test (left side), Mean” value (rats [2]; [6]) was 84.62 * and the “Area under the curve (AUC), paw withdrawal test (right side), Mean” value (rats [2]; [6]) was 85.40 *. For the same compound, the release order [3] was “two phases” and the duration of anesthesia/analgesia (rats [4]) was “about 3 days”.

From US6913760B2, “Drug delivery composition” (New England Medical Hospitals, Inc., priority 2001, dated 2005)
